Consider 5 molecules from ChEMBL document CHEMBL1777784, “New antiplasmodial indole alkaloids from Hunteria zeylanica” (Bioorg Med Chem Lett, 2011).

Test [1] can be described thus: Selectivity index, ratio of IC50 for Plasmodium falciparum 3D7 to IC50 for human HL60 cells. Further details: species or system HL-60.
The next test has as its system HL-60. The test can be described thus: Cytotoxicity against human HL60 cells. In kind it is cell-based.
The subject of another test is Plasmodium falciparum. Briefly: Antiplasmodial activity against Plasmodium falciparum 3D7 by Geimsa staining method. The class given is functional, organism-based.

As usually defined, the IC50 is the concentration that inhibits the measured activity by half. A higher IC50 goes with a need for much substance. For `C/C=C1/C[N@@+]2(C)CCc3c([nH]c4ccc(O)c([C@@H]5C[C@@]6(CC)CCCN7CCc8c(n5c5ccccc85)[C@H]76)c34)[C@H]2C[C@@H]1CCO` (stereo in doubt; 4) [BISNICALATERINE B], the “Ratio IC50” value in test [1] was >44. Besides, the values for the IC50 in the test on HL-60 and in the test on Plasmodium falciparum were > 50 µM and 1.13 µM, respectively.
For the molecule `C/C=C1/C[N@@+]2(C)CCc3c([nH]c4ccc(O)c(C5=C[C@@]6(CC)CCCN7CCc8c(n5c5ccccc85)[C@H]76)c34)[C@H]2C[C@@H]1CCO` [BISNICALATERINE D], the IC50 with HL-60 was > 50 µM; in the test with Plasmodium falciparum (Plasmodium falciparum, 3D7), > 50 µM.
Take `C/C=C1/CN(C)[C@H]2Cc3c([nH]c4ccccc34)[C@H](n3c4c(c5ccccc53)C[C@H]3[C@@H](C(=O)OC)[C@H](C[C@H]4O)/C(=C\C)CN3C)C[C@H]1[C@@H]2C(=O)OC` [BISNICALATERINE A]: the “Ratio IC50” value in test [1] is listed as 3.7. Moreover, the IC50 with HL-60 was 16.2 µM; with Plasmodium falciparum (Plasmodium falciparum, 3D7), 4.36 µM.
Take `CCc1c[n+]2ccc3c4ccccc4[nH]c3c2cc1CCO` [NICALATERINE A]: in test [1], the “Ratio IC50” value is reported as >450. In addition, the IC50 in the test with HL-60 was > 50 µM; in the test on Plasmodium falciparum (Plasmodium falciparum, 3D7), 0.11 µM.
As to `C/C=C1/C[N@@+]2(C)CCc3c([nH]c4ccc(O)c([C@@H]5C[C@@]6(CC)CCCN7CCc8c(n5c5ccccc85)[C@H]76)c34)[C@H]2C[C@@H]1CCO` (stereo in doubt; 5) [BISNICALATERINE B], the “Ratio IC50” value in test [1] was >1000. Moreover, in the test with Plasmodium falciparum, the IC50 was 0.05 µM.
